The subject of test [1] is human lung cancer strain NCI-H441.
Test [2] addresses GDP-bound HRAS wild-type protein (Homo sapiens, UniProt P01112). Put plainly: Binding to HRAS by surface plasmon resonance (SPR), Single Cycle Kinetics. To be noted: for HRAS/KRAS (ratio of KD value with respect to HRAS to KD value with respect to KRAS) / HRAS/KRAS (ratio of KD value for HRAS to KD value for KRAS): SPR, GDP-bound HRAS wild-type protein vs GDP-bound KRAS wild-type protein. (In general: Surface plasmon resonance follows binding to a sensor surface in real time, without labels.)

The target in test [3] is GDP-bound NRAS wild-type protein (Homo sapiens, UniProt P01111). Put plainly: Binding to NRAS by surface plasmon resonance (SPR), Single Cycle Kinetics. To be noted: for NRAS/KRAS (ratio of KD value with respect to NRAS to KD value with respect to KRAS) / NRAS/KRAS (ratio of KD value for NRAS to KD value for KRAS): SPR, GDP-bound NRAS wild-type protein vs GDP-bound KRAS wild-type protein.

Like-named read-outs stand apart in the source and are kept apart here. *1 amine or outer side, *2 acyl side, *3 side chain or, on linkers, in order; H or OH if unused. Where a SMILES comes first, the peptide text is derived from it. Bridges are numbered along the chain shown (N, C = ends). [ ]: non-standard residue; d: D form. The star is where a group is joined. hPhe(3-Cl-4-CF3) = N[C@@H](CCc1ccc(C(F)(F)F)c(Cl)c1)C(=O)O; X34 = Cc1ccc(C[C@@H](C(=O)[*:2])N(CCC(C)(C)C)[*:1])cc1; NMeGly(cPent) = CN[C@H](C(=O)O)C1CCCC1; NMeD = CN[C@@H](CC(=O)O)C(=O)O; NMeL = CN[C@@H](CC(C)C)C(=O)O; Morpholide = C1CN(*)CCO1; NMeA = CN[C@@H](C)C(=O)O; Ac5c = NC1(C(=O)O)CCCC1; Aze = O=C(O)[C@@H]1CCN1; Sar = CNCC(=O)O
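For IC50 in this document: cell proliferation inhibition after four days measured by CellTiter-Glo.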

GDP-bound HRAS wild-type protein, sequence (P01112 whole entry): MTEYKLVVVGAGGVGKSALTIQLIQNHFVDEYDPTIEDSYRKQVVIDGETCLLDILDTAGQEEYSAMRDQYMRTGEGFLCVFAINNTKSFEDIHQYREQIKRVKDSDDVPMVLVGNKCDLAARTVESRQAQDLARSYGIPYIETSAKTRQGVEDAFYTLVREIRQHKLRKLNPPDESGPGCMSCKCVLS
GDP-bound NRAS wild-type protein, sequence (P01111 whole entry): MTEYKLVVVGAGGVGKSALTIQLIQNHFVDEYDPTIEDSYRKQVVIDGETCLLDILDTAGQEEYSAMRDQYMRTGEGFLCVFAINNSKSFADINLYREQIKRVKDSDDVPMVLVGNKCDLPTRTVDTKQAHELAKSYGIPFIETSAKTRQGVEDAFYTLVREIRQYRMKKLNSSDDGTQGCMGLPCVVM

Take `CCO[C@@H]1C[C@H]2C(=O)NC3(CCC3)C(=O)N(C)[C@@H](C3CCCC3)C(=O)N(C)[C@H](C(=O)N3CCOCC3)CC(=O)N(C)[C@@H](Cc3ccccc3)C(=O)N[C@@H]([C@@H](C)CC)C(=O)N(C)CC(=O)N(C)[C@H]3CCCCCN(C3=O)[C@@H](Cc3ccc(C(F)(F)F)cc3)C(=O)N(C)CC(=O)N[C@@H](CCc3cc(F)c(C(F)(F)F)c(F)c3)C(=O)N2C1` [PP0687]: the IC50 (in general, the midpoint of a concentration-inhibition curve) in test [1] came to 44.1 nM. Further, the “HRAS/KRAS (ratio of KD value with respect to HRAS to KD value with respect to KRAS)” value in test [2] was “B (a compound having 3 or more and less than 10 is denoted as B)”. For the same compound, the “NRAS/KRAS (ratio of KD value with respect to NRAS to KD value with respect to KRAS)” value in test [3] is “B (a compound having 3 or more and less than 10 is denoted as B)”.

In test [1], `CCO[C@@H]1C[C@H]2C(=O)NC3(CCC3)C(=O)N(C)[C@@H](C3CCCC3)C(=O)N(C)[C@H](C(=O)N3CCOCC3)CC(=O)N(C)[C@@H](Cc3cscn3)C(=O)N[C@@H]([C@@H](C)CC)C(=O)N(C)CC(=O)N(C)[C@H]3CCCCCN(C3=O)[C@@H](Cc3ccc(C(F)(F)F)cc3)C(=O)N(C)CC(=O)N[C@@H](CCc3cc(F)c(C(F)(F)F)c(F)c3)C(=O)N2C1` [PP0855] displayed an IC50 of 114 nM. In test [2], the “HRAS/KRAS (ratio of KD value for HRAS to KD value for KRAS)” value was “B (a compound having 3 or more and less than 10 is denoted as B)”. For the same compound, in test [3], the “NRAS/KRAS (ratio of KD value for NRAS to KD value for KRAS)” value is “B (a compound having 3 or more and less than 10 is denoted as B)”.

In turn, `CCO[C@@H]1C[C@H]2C(=O)NC3(CCC3)C(=O)N(C)[C@@H](C3CCCC3)C(=O)N(C)[C@H](C(=O)N3CCOCC3)CC(=O)N(C)[C@@H](Cc3cccc(F)c3)C(=O)N[C@@H]([C@@H](C)CC)C(=O)N(C)CC(=O)N(C)[C@H]3CCCCCN(C3=O)[C@@H](Cc3ccc(C(F)(F)F)cc3)C(=O)N(C)CC(=O)N[C@@H](CCc3cc(F)c(C(F)(F)F)c(F)c3)C(=O)N2C1` [PP0856] came in with an IC50 in test [1] of 66.7 nM. Moreover, the “HRAS/KRAS (ratio of KD value for HRAS to KD value for KRAS)” value in test [2] is “B (a compound having 3 or more and less than 10 is denoted as B)”. Also, in test [3], the “NRAS/KRAS (ratio of KD value for NRAS to KD value for KRAS)” value is “B (a compound having 3 or more and less than 10 is denoted as B)”.

`CC[C@H](C)[C@@H]1NC(=O)[C@H](Cc2ccccc2)N(C)C(=O)C[C@@H](C(=O)N2CCOCC2)N(C)C(=O)[C@H](C2CCCC2)N(C)C(=O)C2(CCCC2)NC(=O)[C@@H]2CCCN2C(=O)[C@H](CCc2ccc(C(F)(F)F)c(Cl)c2)NC(=O)CN(C)C(=O)[C@H](Cc2ccc(F)cc2)N2CCCCC[C@@H](C2=O)N(C)C(=O)CN(C)C1=O` [PP0961] returned an IC50 in test [1] of 53.6 nM. Also, in test [2], the “HRAS/KRAS (ratio of KD value for HRAS to KD value for KRAS)” value was “B (a compound having 3 or more and less than 10 is denoted as B)”. The “NRAS/KRAS (ratio of KD value for NRAS to KD value for KRAS)” value in test [3] is “B (a compound having 3 or more and less than 10 is denoted as B)”.

Take `CC[C@H](C)[C@@H]1NC(=O)[C@H](CC(C)C)N(C)C(=O)C[C@@H](C(=O)N2CCOCC2)N(C)C(=O)[C@H](C2CCCC2)N(C)C(=O)C2(CCCC2)NC(=O)[C@@H]2CCCN2C(=O)[C@H](CCc2ccc(C(F)(F)F)c(Cl)c2)NC(=O)CN(C)C(=O)[C@H](Cc2ccc(C)cc2)N(CCC(C)(C)C)C(=O)[C@@H]2CCN2C(=O)[C@H](C)N(C)C1=O` [PP0087] ([NMeL]I[NMeA][Aze][X34][Sar][hPhe(3-Cl-4-CF3)]P[Ac5c][NMeGly(cPent)][NMeD]-Morpholide; lactam N-11): the IC50 in test [1] was found to be 24 nM. The “HRAS/KRAS (ratio of KD value for HRAS to KD value for KRAS)” value in test [2] was “C (A compound having a KD ratio of 0.1 or more and less than 3 is denoted as C)”. In addition, in test [3], the “NRAS/KRAS (ratio of KD value for NRAS to KD value for KRAS)” value was “C (A compound having a KD ratio of 0.1 or more and less than 3 is denoted as C)”.

For the compound `CCO[C@@H]1C[C@H]2C(=O)NC3(CC(C)(C)C3)C(=O)N(C)[C@@H](C3CCCC3)C(=O)N(C)[C@H](C(=O)N(C)C)CC(=O)N(C)[C@@H](CC(C)C)C(=O)N[C@@H]([C@@H](C)CC)C(=O)N(C)CC(=O)N(C)[C@H]3C/C=C\CCN(C3=O)[C@@H](Cc3ccc(C)c(F)c3)C(=O)N(C)CC(=O)N[C@@H](CCc3ccc(C(F)(F)F)c(OC)c3)C(=O)N2C1` [PP2689], the IC50 in test [1] (read-out: NCI-H441 IC50, NCI-H441 cells, four days, CellTiter-Glo) is 6.2 nM. Moreover, the “HRAS/KRAS (ratio of KD value with respect to GDP-bound HRAS wild-type protein to KD value with respect to KRAS)” value in test [2] (SPR KD ratio HRAS/KRAS, class symbols) was “B (a compound having 3 or more and less than 10 is denoted as B)”. Further, the “NRAS/KRAS (ratio of KD value with respect to GDP-bound NRAS wild-type protein to KD value with respect to KRAS)” value in test [3] (SPR KD ratio NRAS/KRAS, class symbols) was “A (a compound having 10 or more and less than 20 is denoted as A)”.

As for `CCO[C@@H]1C[C@H]2C(=O)NC3(CCC3)C(=O)N(C)[C@@H](C3CCCC3)C(=O)N(C)[C@H](C(=O)N3CCOCC3)CC(=O)N(C)[C@@H](Cc3cccnc3)C(=O)N[C@@H]([C@@H](C)CC)C(=O)N(C)CC(=O)N(C)[C@H]3CCCCN(C3=O)[C@@H](Cc3ccc(C(F)(F)F)cc3)C(=O)N(C)CC(=O)N[C@@H](CCc3cc(F)c(C(F)(F)F)c(F)c3)C(=O)N2C1` [PP0718], it took 42.3 nM to reach half-maximal inhibition in test [1] (IC50). Also, the “HRAS/KRAS (ratio of KD value with respect to HRAS to KD value with respect to KRAS)” value in test [2] was “B (a compound having 3 or more and less than 10 is denoted as B)”. Also, the “NRAS/KRAS (ratio of KD value with respect to NRAS to KD value with respect to KRAS)” value in test [3] is “C (A compound having a KD ratio of 0.1 or more and less than 3 is denoted as C)”.

For the origin of these results see patent publication US20240158446A1, “CYCLIC COMPOUND HAVING SELECTIVE INHIBITORY ACTION ON KRAS OVER HRAS AND NRAS” (CHUGAI SEIYAKU KABUSHIKI KAISHA, priority 2021, published 2024).
